We go through 2 compounds from US20230364044A1, “Methods of Treating or Preventing Acute Respiratory Distress Syndrome” (YALE UNIVERSITY, priority 2018, published 2023).

One assay has as its system mouse lungs. The assay can be described thus: Immunoblot of lung lysates from mice exposed to hyperoxia. The assay is classed as in vivo. The protocol: FIG. 3 illustrates the finding that T3 pretreatment increases mitochondrial biogenesis/fusion/mitophagy and decreases ER stress & apoptosis. WT mice were nebulized with T3 (40 μg/kg) for 1 day or 3 days or PTU (100 μg/kg) for 3 days prior to 72 h continuous hyperoxia exposure. Lysates were isolated and immunoblotted against antibodies as listed. ([…] was used as protein loading control.
FIG. 5 illustrates the finding that T3 pretreatment increased Mito anti-ROS potential, biogenesis and mitophagy via PINK 1. WT and PINK1-KO mice were nebulized with T3 (40 μg/kg) for 3 days prior to 72 h continuous hyperoxia exposure. Lysates were isolated and immunoblotted against antibodies as listed. β-Actin was used as protein loading control.
FIG. 7 illustrates the finding that GC-1 pretreatment decreased hyperoxia-induced Mito dysfunction, ER stress and apoptosis. WT mice were orally gavaged with GC-1 (40 μm/kg) and exposed to RA or to hyperoxia for 72 h (H3). A time course of recovery after 72 h hyperoxia is shown (R1-3, 1, 2 3 and 6 days post-hyperoxia). Lysates from mouse lungs were immunoblotted against the listed antibodies (Abs).
FIG. 8 illustrates the finding that GC-1 pretreatment increases Tie2 activation and decreases Ang2. WT mice were orally gavaged with GC-1 (40 μm/kg) and exposed to RA or to hyperoxia for 72 h (H3). A time course of recovery after 72 h hyperoxia is shown (R1-3, 1, 2 3 and 6 days post-hyperoxia). Lysates from mouse lungs were immunoblotted against the listed antibodies.
On the technique in general: In western blotting, separated proteins are transferred to a membrane and probed.

The subject of assay [1] is WT mice (hyperoxia-induced lung injury). The assay is described as follows: Hyperoxia-induced lung injury in mice, BAL readouts (total cells, protein, LDH, Amplex Red oxidants, IL-1β, IL-6). Type of assay: in vivo. The protocol: FIG. 1 illustrates an exemplary T3 administration regime in mice. WT mice were nebulized with triiodothyronine (T3, 40 μg/kg) for 1 day or 3 days or propylthiouracil (PTU, 100 μg/kg) for 3 days prior to 72 h continuous hyperoxia exposure.
FIGS. 2A-2F illustrate the finding that T3 attenuates hyperoxia-induced lung injury, inflammation, and oxidants in WT mice. WT mice were nebulized with T3 (40 μg/kg) for 1 day or 3 days, or PTU (100 μg/kg) for 3 days prior to 72 h continuous hyperoxia exposure. Control mice were exposed to room air (RA). […] IL-1β (FIG. 2E) and IL-6 (FIG. 2F) were detected by ELISA in BALF. The values are expressed as mean±SD and analyzed by Mann-Whitney test n=6 for each group). *p<0.05, vs RA; **p<0.05, vs hyperoxia without pretreatment.
WT, PINK1−/−, and Parkin−/− mice were nebulized with T3 (40 μg/kg) for 3 days or no pretreatment prior to 72 h continuous hyperoxia exposure. […] IL-1β (FIG. 4E) and IL-6 (FIG. 4F) were detected by ELISA in BALF. The values are expressed as mean±SD and analyzed by Mann-Whitney test n=6 for each group). *p<0.05, vs WT no T3 RA; **p<0.05, vs WT no T3 hyperoxia; #p<0.05, vs corresponding RA; ##p<0.05, vs corresponding no T3 hyperoxia.
FIGS. 6A-6F illustrate the finding that GC-1 pretreatment prevents hyperoxia-induced lung injury and accelerates recovery. WT mice were orally gavaged with GC-1 (40 μm/kg) and then exposed to RA or to continuous hyperoxia for 72 h (H3). Recovery phase was initiated after 72 h hyperoxia (R1-3, 1, 2 3 and 6 days post-hyperoxia). Cells recovered from BAL were counted as BAL total cell counts (FIG. 6A). […] IL-6 (FIG. 6E) and IL-1β (FIG. 6F) was detected by ELISA in BALF. The values are expressed as mean±SD and analyzed by Mann-Whitney test (n=4 for each group). *p<0.05 versus no GC-1 RA; **p<0.05 versus no GC-1 H3; #p<0.05 versus corresponding no GC-1.

Setting [2] is: WT mice orally gavaged with GC-1 (40 μm/kg), 72 h hyperoxia and recovery, FIG. 8.
[3] abbreviates: WT mice nebulized with T3 (40 μg/kg) for 1 day or 3 days prior to 72 h hyperoxia, FIG. 3.

For `Cc1cc(OCC(=O)O)cc(C)c1Cc1ccc(O)c(C(C)C)c1` [GC-1, 2-(4-(4-hydroxy-3-isopropylbenzyl)-3,5-dimethylphenoxy)acetic acid], the “hyperoxia-induced Mito dysfunction, ER stress and apoptosis” value in the assay with mouse lungs (WT mice orally gavaged with GC-1 (40 μm/kg), 72 h hyperoxia and recovery, FIG. 7) is reported as “decreased”. Further, in the assay with mouse lungs (setting [2]), the Ang2 entry was “decreases” and the Tie2 activation result is reported as “increases”. Moreover, the hyperoxia-induced lung injury entry in assay [1] (WT mice orally gavaged with GC-1 (40 μm/kg), then 72 h continuous hyperoxia (H3), FIGS. 6A-6F) was “prevents”. In addition, the recovery after hyperoxia entry in assay [1] (WT mice orally gavaged with GC-1 (40 μm/kg), recovery phase 1, 2 3 and 6 days post-hyperoxia) is listed as “accelerates”.
Turning to `N[C@@H](Cc1cc(I)c(Oc2ccc(O)c(I)c2)c(I)c1)C(=O)O` [T3, (S)-2-amino-3-[4-(4-hydroxy-3-iodophenoxy)-3,5-diiodophenyl]propanoic acid], in the assay with mouse lungs (WT and PINK1-KO mice nebulized with T3 (40 μg/kg) for 3 days prior to 72 h hyperoxia, via PINK 1, FIG. 5), the “Mito anti-ROS potential, biogenesis and mitophagy” value is given as “increased”. Moreover, in the assay with mouse lungs (setting [3]), the “ER stress & apoptosis” value is “decreases” and the mitochondrial biogenesis/fusion/mitophagy result was “increases”. In addition, in assay [1] (WT mice nebulized with T3 (40 μg/kg) for 1 day or 3 days prior to 72 h continuous hyperoxia, Amplex Red, BAL fluid), the hyperoxia-induced oxidants result was “attenuates”. Further, the hyperoxia-induced lung injury result in assay [1] (WT mice nebulized with T3 (40 μg/kg) for 1 day or 3 days prior to 72 h continuous hyperoxia, FIGS. 2A-2F) is “attenuates”. Besides, in assay [1] (WT mice nebulized with T3 (40 μg/kg) for 1 day or 3 days prior to 72 h continuous hyperoxia, IL-1β, IL-6 in BALF), the hyperoxia-induced inflammation result is listed as “attenuates”. Also, the “mediator of T3 effects against hyperoxia-induced lung injury” value in assay [1] (WT, PINK1−/− and Parkin−/− mice nebulized with T3 (40 μg/kg) for 3 days prior to 72 h hyperoxia, FIGS. 4A-4F) was “PINK 1, not Parkin, mediates T3 effects”.
